“And” between values parts separate entries of the source, which are not always exact repeats. Identical values can stand only once.
Key:
[1] = system: Dirofilaria immitis microfilariae; assay: Dirofilaria immitis microfilariae motility (optical flow, ImageXpress/wrmXpress) and CellTox Green viability, second lab
Description: We also conducted Dirofilaria immitis experiments in the lab of M. Zamanian (Univeristy of Wisconsin). For this experiment, shown in Supplementary Fig. 6, Microfilaremic blood was obtained from the NIH/NIAID Filariasis Research Reagent Resource Center (FR3)[70]. Blood was drawn and shipped approximately 24 h before use. Upon arrival, blood was warmed to 37 °C then combined with a 0.85% sodium chloride and 0.2% saponin solution in a 1:11 volumetric ratio and incubated in a 37 °C water bath for 15 min. The hemolyzed solution was passed through a 25 mm 5.0 μm pore size syringe filter. The used filter disks were transferred to petri dishes filled with RPMI 1640 culture media with 1% penicillin/streptomycin (0.1 mg/mL) and incubated at 37 °C for 2 h while microfilariae (mf) separated from the disks. Disks were discarded and mf titered to 5 mf/μL.
Aliquots of titered mf were incubated on a heating block at 60 °C for 1 h to produce heat killed positive controls. One μL of 100× drug was aliquoted to each well of a 96-well plate; 100 μL of live mf were added to treatment wells and 100 μL of heat killed mf were added to positive control wells (for a total of 500 mf/well). Plates were sealed with a breathable plate cover and maintained at 37 °C and 5% atmospheric CO2. […] Image analysis and the subsequent measurement of optical flow and fluorescence was performed using wrmXpress v1.3.02[71]. […]

C. elegans DA1316 = assay: C. elegans 3-day liquid viability assay, DA1316 avr-14; avr-15; […]; type: in vivo, Caenorhabditis elegans; settings: for total animals normalized to corresponding controls: DA1316
C. elegans [2] = assay: Motor phenotype time course on 60 μM Nemacol-1, EMB-8 disruption vs wild type; type: in vivo, Caenorhabditis elegans
C. elegans [3] = assay: C. elegans 3-day liquid viability assay, Nemacol-1 x Ivermectin matrix, wild type; settings: for total animals normalized to corresponding controls: N2 wild type; for nemacol-1 x ivermectin matrix dose-response raw data: ivermectin 0 (row head 0), 3 replicate columns
HEK293 cells = settings: cited from earlier work
[4] = Caenorhabditis elegans, read-out: C. elegans viability

## O=[N+]([O-])c1ccc(N2CCN(CC3CCCCC3)CC2)cc1 [Nemacol-1]
[1]
  impact on IVM's ability to paralyze Dirofilaria: no impact
  optical_flow: 64671429 and 95056554 and 124845938 and 124294468
C. elegans DA1316; ivermectin 0 uM + nemacol-1 5.72205e-5
  total animals normalized to corresponding controls: 117.10
C. elegans DA1316; ivermectin 0 uM + nemacol-1 0.0146484
  total animals normalized to corresponding controls: 91.26
C. elegans DA1316; ivermectin 0 uM + nemacol-1 3.75
  total animals normalized to corresponding controls: 106.04
C. elegans DA1316; ivermectin 0 uM + nemacol-1 7.5
  total animals normalized to corresponding controls: 111.01
C. elegans DA1316; ivermectin 0 uM + nemacol-1 15
  total animals normalized to corresponding controls: 100.31
C. elegans DA1316; ivermectin 0 uM + nemacol-1 30
  total animals normalized to corresponding controls: 100.23
C. elegans DA1316; ivermectin 0 uM + nemacol-1 60
  total animals normalized to corresponding controls: 99.19
C. elegans DA1316; ivermectin 0.0009375 uM + nemacol-1 0.000114441
  total animals normalized to corresponding controls: 112.95
C. elegans DA1316; ivermectin 0.0009375 uM + nemacol-1 0.0292969
  total animals normalized to corresponding controls: 124.80
C. elegans DA1316; ivermectin 0.0009375 uM + nemacol-1 3.75
  total animals normalized to corresponding controls: 113.26
C. elegans DA1316; ivermectin 0.0009375 uM + nemacol-1 7.5
  total animals normalized to corresponding controls: 122.67
C. elegans DA1316; ivermectin 0.0009375 uM + nemacol-1 15
  total animals normalized to corresponding controls: 99.45
C. elegans DA1316; ivermectin 0.0009375 uM + nemacol-1 30
  total animals normalized to corresponding controls: 96.12
C. elegans DA1316; ivermectin 0.0009375 uM + nemacol-1 60
  total animals normalized to corresponding controls: 95.59
C. elegans DA1316; ivermectin 0.001875 uM + nemacol-1 0.000228882
  total animals normalized to corresponding controls: 117.74
C. elegans DA1316; ivermectin 0.001875 uM + nemacol-1 0.0585938
  total animals normalized to corresponding controls: 95.40
C. elegans DA1316; ivermectin 0.001875 uM + nemacol-1 3.75
  total animals normalized to corresponding controls: 107.81
C. elegans DA1316; ivermectin 0.001875 uM + nemacol-1 7.5
  total animals normalized to corresponding controls: 110.79
C. elegans DA1316; ivermectin 0.001875 uM + nemacol-1 15
  total animals normalized to corresponding controls: 103.40
C. elegans DA1316; ivermectin 0.001875 uM + nemacol-1 30
  total animals normalized to corresponding controls: 87.76
C. elegans DA1316; ivermectin 0.001875 uM + nemacol-1 60
  total animals normalized to corresponding controls: 95.73
C. elegans DA1316; ivermectin 0.00375 uM + nemacol-1 0.000457764
  total animals normalized to corresponding controls: 105.05
C. elegans DA1316; ivermectin 0.00375 uM + nemacol-1 0.117188
  total animals normalized to corresponding controls: 110.64
C. elegans DA1316; ivermectin 0.00375 uM + nemacol-1 3.75
  total animals normalized to corresponding controls: 115.16
C. elegans DA1316; ivermectin 0.00375 uM + nemacol-1 7.5
  total animals normalized to corresponding controls: 104.58
C. elegans DA1316; ivermectin 0.00375 uM + nemacol-1 15
  total animals normalized to corresponding controls: 92.41
C. elegans DA1316; ivermectin 0.00375 uM + nemacol-1 30
  total animals normalized to corresponding controls: 95.26
C. elegans DA1316; ivermectin 0.00375 uM + nemacol-1 60
  total animals normalized to corresponding controls: 95.05
C. elegans DA1316; ivermectin 0.03 uM + nemacol-1 0.00366211
  total animals normalized to corresponding controls: 117.10
C. elegans DA1316; ivermectin 0.03 uM + nemacol-1 0.9375
  total animals normalized to corresponding controls: 95.99
C. elegans DA1316; ivermectin 0.03 uM + nemacol-1 3.75
  total animals normalized to corresponding controls: 106.91
C. elegans DA1316; ivermectin 0.03 uM + nemacol-1 7.5
  total animals normalized to corresponding controls: 93.50
C. elegans DA1316; ivermectin 0.03 uM + nemacol-1 15
  total animals normalized to corresponding controls: 78.16
C. elegans DA1316; ivermectin 0.03 uM + nemacol-1 30
  total animals normalized to corresponding controls: 62.13
C. elegans DA1316; ivermectin 0.03 uM + nemacol-1 60
  total animals normalized to corresponding controls: 54.19
C. elegans DA1316; ivermectin 0.06 uM + nemacol-1 0.00732422
  total animals normalized to corresponding controls: 74.90
C. elegans DA1316; ivermectin 0.06 uM + nemacol-1 1.875
  total animals normalized to corresponding controls: 82.85
C. elegans DA1316; ivermectin 0.06 uM + nemacol-1 3.75
  total animals normalized to corresponding controls: 87.36
C. elegans DA1316; ivermectin 0.06 uM + nemacol-1 7.5
  total animals normalized to corresponding controls: 84.34
C. elegans DA1316; ivermectin 0.06 uM + nemacol-1 15
  total animals normalized to corresponding controls: 45.86
C. elegans DA1316; ivermectin 0.06 uM + nemacol-1 30
  total animals normalized to corresponding controls: 52.87
C. elegans DA1316; ivermectin 0.06 uM + nemacol-1 60
  total animals normalized to corresponding controls: 31.96
C. elegans DA1316; avr-14, avr-15, glc-1 triple mutant
  synergy with Ivermectin in triple mutant compared to wild type: 0.6 fold
C. elegans [2]; N2, 60µM, 1h, average of 3 biological repeats
  Fraction No Phenotype: 0.0000
C. elegans [2]; N2, 60µM, 1h, per bio rep
  Fraction No Phenotype: 0.0000
C. elegans [2]; N2, 60µM, 4h, average of 3 biological repeats
  Fraction No Phenotype: 0.5741
C. elegans [2]; N2, 60µM, 4h, per bio rep
  Fraction No Phenotype: 0.3889 and 0.5556 and 0.7778
C. elegans [2]; N2, 60µM, 6h, average of 3 biological repeats
  Fraction No Phenotype: 0.7407
C. elegans [2]; N2, 60µM, 6h, per bio rep
  Fraction No Phenotype: 0.8333 and 0.5556
C. elegans [2]; N2, 60µM, 24h, average of 3 biological repeats
  Fraction No Phenotype: 1.0000
C. elegans [2]; N2, 60µM, 24h, per bio rep
  Fraction No Phenotype: 1.0000
C. elegans [2]; emb-8, 60µM, 1h, average of 3 biological repeats
  Fraction No Phenotype: 0.0000
C. elegans [2]; emb-8, 60µM, 1h, per bio rep
  Fraction No Phenotype: 0.0000
C. elegans [2]; emb-8, 60µM, 4h, average of 3 biological repeats
  Fraction No Phenotype: 0.0000
C. elegans [2]; emb-8, 60µM, 4h, per bio rep
  Fraction No Phenotype: 0.0000
C. elegans [2]; emb-8, 60µM, 6h, average of 3 biological repeats
  Fraction No Phenotype: 0.0000
C. elegans [2]; emb-8, 60µM, 6h, per bio rep
  Fraction No Phenotype: 0.0000
C. elegans [2]; emb-8, 60µM, 24h, average of 3 biological repeats
  Fraction No Phenotype: 0.0000
C. elegans [2]; emb-8, 60µM, 24h, per bio rep
  Fraction No Phenotype: 0.0000
C. elegans [3]; 3-day viability, wild type
  fold lowering of Ivermectin's EC50: 3 fold
C. elegans [3]; [4]
  viability at 15 µM: 97%
  viability at 30 µM: 97%
  viability at 60 µM: 83%
C. elegans [3]; Ivermectin + Nemacol-1, wild type, threshold of synergy 10
  global ZIP synergy score: 20.0
C. elegans [3]; nemacol-1 0.9375, ivermectin 0 uM
  total animals normalized to corresponding controls: 1.1
C. elegans [3]; nemacol-1 1.875, ivermectin 0 uM
  total animals normalized to corresponding controls: 1.1
C. elegans [3]; nemacol-1 3.75, ivermectin 0 uM
  total animals normalized to corresponding controls: 1.2
C. elegans [3]; nemacol-1 7.5, ivermectin 0 uM
  total animals normalized to corresponding controls: 1.1
C. elegans [3]; nemacol-1 15, ivermectin 0 uM
  total animals normalized to corresponding controls: 0.9
C. elegans [3]; nemacol-1 30, ivermectin 0 uM
  total animals normalized to corresponding controls: 0.9
C. elegans [3]; wt (N2) + 15 uM nemacol
  nemacol-1 x ivermectin matrix dose-response raw data: 100.0 and 76.7 and 84.0
C. elegans [3]; wt (N2) + 30 uM nemacol
  nemacol-1 x ivermectin matrix dose-response raw data: 102.1 and 93.3 and 70.0
C. elegans [3]; wt (N2) + 60 uM nemacol
  nemacol-1 x ivermectin matrix dose-response raw data: 119.1 and 66.7 and 70.0
C. elegans [3]; wt (N2) + 3.75 nemacol
  nemacol-1 x ivermectin matrix dose-response raw data: 102.1 and 150.0 and 114.0

## CCC1CCC(N2CCN(c3ccc([N+](=O)[O-])cc3)CC2)CC1 (stereo not drawn) [Nemacol-2]
HEK293 cells
  result in previous counter-screens: adverse effects
HEK293 cells; ref Burns et al., 2015
  activity in preliminary HEK293 cell-based assays: higher activity

Reference: paper PMC10066365, “Nemacol is a small molecule inhibitor of C. elegans vesicular acetylcholine transporter with anthelmintic potential” (Nature Communications, 2023)
